The values that follow come from paper PMC5216352, “Disulfide isomerase-like protein AtPDIL1–2 is a good candidate for trichlorophenol phytodetoxification” (Scientific Reports, 2017).

The assay addresses T1, AtPDIL1-2 (Arabidopsis thaliana, UniProt Q9SRG3).
T1 construct: gene PDIL1-2; full-length cDNA (1527 bp ORF, start codon to C-terminal KDEL) in pET-32a, His-tagged fusion about 72 kDa, E. coli, Ni-NTA purified
T1 sequence (Q9SRG3 1-508): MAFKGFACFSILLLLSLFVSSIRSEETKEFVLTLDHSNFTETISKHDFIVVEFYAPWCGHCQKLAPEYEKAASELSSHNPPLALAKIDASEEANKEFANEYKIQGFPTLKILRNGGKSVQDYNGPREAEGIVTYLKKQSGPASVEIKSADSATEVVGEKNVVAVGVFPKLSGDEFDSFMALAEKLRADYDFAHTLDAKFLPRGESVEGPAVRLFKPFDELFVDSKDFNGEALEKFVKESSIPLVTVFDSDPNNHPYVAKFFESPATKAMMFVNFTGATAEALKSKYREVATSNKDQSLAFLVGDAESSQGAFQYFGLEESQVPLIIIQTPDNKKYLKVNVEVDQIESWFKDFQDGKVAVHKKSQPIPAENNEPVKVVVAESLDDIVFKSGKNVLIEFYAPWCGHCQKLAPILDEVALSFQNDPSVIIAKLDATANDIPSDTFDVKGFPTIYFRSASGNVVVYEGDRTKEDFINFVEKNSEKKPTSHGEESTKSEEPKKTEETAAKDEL
The assay is described as follows: RNase A oxidative refolding assay, cCMP hydrolysis at […] nm. It counts as biochemical. To be noted: 3.5 uM protein, 10 uM reduced denatured RNase, 4.5 mM cCMP, 1 mM GSH, 0.2 mM GSSG, pH 8; TCP concentration not given.

`Oc1c(Cl)cc(Cl)cc1Cl` [2,4,6-TCP] registered a maximum inhibition of 16%.
